Assays:
S1PR2 = biological target: T1, S1PR2 (Homo sapiens, UniProt O95136); assay: S1PR2 binding assay (competition with radioactively labeled S1P, SpA); conditions: membranes from stable cell line over expressing S1PR2, SpA beads; read-out: S1P2 EC50 (nM), S1PR2 binding EC50
T1 construct: expressed in transfected cells
Procedure: The following assay can be used for determination of S1PR2 binding. The binding assay measures the potential to compete with radioactively labeled S1P for binding to the receptor.
The assay is performed in a96 well plate where the following reagents are added. First 50 μL compound is added into the assay plate, followed by addition of 100 μL ofa mixture consisting of membrane and Scintillation proximity Assay (SpA) beads [mixture consists […] membranes derived from stable cell line over expressing SPR2, 0.5 mg/well Polyvinyltoluene-Wheat Germ-Agglutinin (PVT-WGA) beads (Perkin Elmer, RPNQOO1)]. All components are diluted in assay buffer containing 20 mM Tris pH 7.5; 10 mM MgCl2; 100 mM NaCl; 0.4% BSA FAF; 1 mM Na3VO4) and incubated for 15 min until addition to the assay plate. Subsequently, 50 ul of radioactively labeled S1P is added to the wells (Sphingosine, D-erythro-[3-3H] 1-phosphate; ARC; ART0778). After an incubation for 2 h at room temperature, plates are centrifuged at 2000 rpm during 20 min. Plates are read on a Topcount reader (Perkin Elmer) immediately after centrifugation (readout time, 1 min/well).

[1] = biological target: T2, human GPCR sphingosine 1-phosphate receptor 2 (Homo sapiens, UniProt O95136); assay: S1PR2 antagonist Ca2+ flux assay; format: cell-based; conditions: antagonist mode, CHO-S1PR2 cells, S1P at EC80, Ca2+ fluorescence; read-out: S1P2 EC50 (nM), S1P2 antagonist EC50
T2 construct: host or cells: CHO
T2 sequence (O95136 whole entry): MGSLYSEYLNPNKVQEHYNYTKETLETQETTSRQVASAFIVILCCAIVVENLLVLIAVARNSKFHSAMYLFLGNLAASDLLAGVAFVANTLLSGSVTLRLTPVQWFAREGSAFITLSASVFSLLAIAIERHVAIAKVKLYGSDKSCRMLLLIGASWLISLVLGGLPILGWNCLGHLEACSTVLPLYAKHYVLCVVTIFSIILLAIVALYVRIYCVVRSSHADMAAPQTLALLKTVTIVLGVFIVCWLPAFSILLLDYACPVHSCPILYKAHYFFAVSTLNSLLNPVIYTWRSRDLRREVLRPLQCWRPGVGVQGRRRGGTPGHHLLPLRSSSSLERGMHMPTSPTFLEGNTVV
Procedure: Triggering of S1PR2 by administration of Sphingosine-1-phosphate leads to a transient increase in intracellular Ca^2+. The Ca^2+ flux assays are measuring the release of Ca^2+ intracellularly by use of a Ca^2+ sensitive fluorescent dye. The assay is firstly run in agonist mode (incubation of compounds alone) to ensure that the Ca^2+ released measured is not caused by the test compound having an agonistic effect. Then the assay is continued in antagonist mode (Sphingosine-1-Phosphate added to incubated medium containing the test compounds).
CHO cells stably overexpressing human GPCR sphingosine 1-phosphate receptor 2 (CHO-S1PR2 Perkin Elmer; ES-594-A) are seeded from a frozen stock in 384 wells sterile microplates (50 μL; 7,500 cells/well) and are incubated overnight at 37° C. and 5% CO2. The next day cells are washed twice with starvation medium (F-12 Ham's medium containing 0.1% BSA (Fatty acid free: FAF)) and left in 25 μL starvation medium for 1 h at 37° C., 5% CO2. After this starvation cells are incubated with 25 μL buffer containing the Ca^2+-sensitive fluorescent dye (0.5 mg Fluo8+125 mg Allura Red in 100 mL of 1% DMSO, in HBSS+20 mM Hepes+5 mM probenecid). The cells are incubated for an additional 1 h after which 10 μL compounds, diluted in HBSS buffer with 20 mM Hepes and 0.1% BSA (FAF), are added to the cells and intracellular Ca2+ changes are immediately measured by reading fluorescence during 3 min (FDSS/pCELL reader). The ratio of the maximal fluorescence over the background fluorescence before compound injection is used to determine compound response.
After readout of the agonist activity, the plates are incubated for 15 min at 37° C. and 5% CO2. Then, cells are stimulated with 10 μL Sphingosine-1-Phosphate (S1P) (Avanti Polar lipids-860492P) at its EC80 concentration. Intracellular Ca2+ changes are immediately measured by reading fluorescence during 3 min (FDSS/pCELL reader). The ratio of the maximal fluorescence over the background fluorescence before compound injection is used to determine compound response.
The obtained ratio's for agonist and antagonist readout were normalized versus vehicle and EC 100 of S1P ascontrols for agonist mode and versus vehicle and […]. From these normalized data EC50 of the compounds are derived.

T1 sequence (O95136 whole entry): as above

Row | Compound | EC50 (S1PR2) [nM] | EC50 [1] [nM]
1 | O=c1c2ccccc2c(Cc2nc3cc(Cl)c(OC(F)(F)F)cc3[nH]2)nn1C1CCCC1 [Compound 24, 4-[[5-chloro-6-(trifluoromethoxy)-1H-benzimidazol-2-yl]methyl]-2-cyclopentyl-phthalazin-1-one] | 8450 | –
2 | O=c1c2ccccc2c(Cc2nc3cc(Cl)c(OC(F)(F)F)cc3[nH]2)nn1C1CCC1 [Compound 26, 4-[[5-chloro-6-(trifluoromethoxy)-1H-benzimidazol-2-yl]methyl]-2-cyclobutyl-phthalazin-1-one] | – | 889
3 | O=c1c2ccccc2c(Cc2nc3cc(Cl)c(OC(F)(F)F)cc3[nH]2)nn1CC1CCC1 [Compound 28, 4-[[6-chloro-5-(trifluoromethoxy)-1H-benzimidazol-2-yl]methyl]-2-(cyclobutylmethyl)phthalazin-1-one] | 33300 | 1490
4 | O=c1c2ccccc2c(Cc2nc3cc(Cl)c(OC(F)(F)F)cc3[nH]2)nn1CC1CCCO1 (stereo not shown) [Compound 34, 4-[[6-chloro-5-(trifluoromethoxy)-1H-benzimidazol-2-yl]methyl]-2-(THF-2-ylmethyl)phthalazin-1-one] | 5190 | 4340
5 | O=c1c2ccccc2c(Cc2nc3cc(Cl)c(OC(F)(F)F)cc3[nH]2)nn1CC1CCCCO1 (stereo not shown) [Compound 35, 4-[[6-chloro-5-(trifluoromethoxy)-1H-benzimidazol-2-yl]methyl]-2-(tetrahydropyran-2-ylmethyl)phthalazin-1-one] | 5410 | –
6 | CC1(Cn2nc(Cc3nc4cc(Cl)c(OC(F)(F)F)cc4[nH]3)c3ccccc3c2=O)COC1 [Compound 36, 4-[[6-chloro-5-(trifluoromethoxy)-1H-benzimidazol-2-yl]methyl]-2-[(3-methyloxetan-3-yl)methyl]phthalazin-1-one] | 100000 | ≥ 19900
7 | CC1(C)OCC(Cn2nc(Cc3nc4cc(Cl)c(OC(F)(F)F)cc4[nH]3)c3ccccc3c2=O)O1 (stereo not shown) [Compound 38, 4-[[6-chloro-5-(trifluoromethoxy)-1H-benzimidazol-2-yl]methyl]-2-[(2,2-dimethyl-1,3-dioxolan-4-yl)methyl]phthalazin-1-one] | 1210 | 1280
8 | CN1CCCC(Cn2nc(Cc3nc4cc(Cl)c(OC(F)(F)F)cc4[nH]3)c3ccccc3c2=O)C1 (stereo not shown) [Compound 39, 4-[[6-chloro-5-(trifluoromethoxy)-1H-benzimidazol-2-yl]methyl]-2-[(1-methyl-3-piperidyl)methyl]phthalazin-1-one] | 13400 | ≥ 19900
9 | CC(C)(C)C(=O)Cn1nc(Cc2nc3cc(Cl)c(OC(F)(F)F)cc3[nH]2)c2ccccc2c1=O [Compound 44, 4-[[6-chloro-5-(trifluoromethoxy)-1H-benzimidazol-2-yl]methyl]-2-(3,3-dimethyl-2-oxo-butyl)phthalazin-1-one] | – | 2090
10 | O=C(Cn1nc(Cc2nc3cc(OCC(F)F)c(Cl)cc3[nH]2)c2c(C3CC3)cccc2c1=O)N1CCOCC1 [Compound 48, 4-[[6-chloro-5-(2,2-difluoroethoxy)-1H-benzimidazol-2-yl]methyl]-5-cyclopropyl-2-(2-morpholino-2-oxo-ethyl)phthalazin-1-one] | – | 98.4
11 | N#Cc1cc2[nH]c(Cc3nn(CC(=O)N4CCOCC4)c(=O)c4ccccc34)nc2c(Cl)c1OCC(F)F [Compound 53, 7-chloro-6-(2,2-difluoroethoxy)-2-[[3-(2-morpholino-2-oxo-ethyl)-4-oxo-phthalazin-1-yl]methyl]-3H-benzimidazole-5-carbonitrile] | – | 2360
12 | O=c1c2ccccc2c(Cc2nc3cc(Cl)c(OC(F)(F)F)cc3[nH]2)nn1CC1CCCN1 (stereo not shown) [Compound 55, 4-[[6-chloro-5-(trifluoromethoxy)-1H-benzimidazol-2-yl]methyl]-2-(pyrrolidin-2-ylmethyl)phthalazin-1-one] | 4570 | 1460
13 | O=c1c2ccccc2c(Cc2nc3cc(Cl)c(OC(F)(F)F)cc3[nH]2)nn1CC1CCCNC1 (stereo not shown) [Compound 58, 4-[[6-chloro-5-(trifluoromethoxy)-1H-benzimidazol-2-yl]methyl]-2-(3-piperidylmethyl)phthalazin-1-one] | 1100 | 890
14 | O=c1c2ccccc2c(Cc2nc3cc(Cl)c(OC(F)(F)F)cc3[nH]2)nn1CC1CNCCO1 (stereo not shown) [Compound 63, 4-[[5-chloro-6-(trifluoromethoxy)-1H-benzimidazol-2-yl]methyl]-2-(morpholin-2-ylmethyl)phthalazin-1-one] | 1270 | 4160
15 | Cc1cccc2c(=O)n(CC(=O)N3CCOCC3)nc(Cc3nc4cc(OCC(F)F)c(C#N)cc4[nH]3)c12 [Compound 66, 6-(2,2-difluoroethoxy)-2-[[8-methyl-3-(2-morpholino-2-oxo-ethyl)-4-oxo-phthalazin-1-yl]methyl]-3H-benzimidazole-5-carbonitrile] | 57.1 | 18.9
16 | CCOc1cc2nc(Cc3nn(CC(=O)O)c(=O)c4ccccc34)[nH]c2cc1F [Compound 129, 2-[4-[(5-ethoxy-6-fluoro-1H-benzimidazol-2-yl)methyl]-1-oxo-phthalazin-2-yl]acetic acid] | 1390 | 79.3
17 | CCOc1cc2[nH]c(Cc3nn(CC(=O)O)c(=O)c4ccccc34)nc2cc1C#N [Compound 138, 2-[4-[(5-cyano-6-ethoxy-1H-benzimidazol-2-yl)methyl]-1-oxo-phthalazin-2-yl]acetic acid] | – | 45
18 | N#Cc1cc2[nH]c(Cc3nn(CC(=O)N4CCN(CCO)CC4)c(=O)c4ccccc34)nc2cc1OCC(F)F [Compound 225, 6-(2,2-difluoroethoxy)-2-[[3-[2-[4-(2-hydroxyethyl)piperazin-1-yl]-2-oxo-ethyl]-4-oxo-phthalazin-1-yl]methyl]-3H-benzimidazole-5-carbonitrile] | – | 388
19 | N#Cc1cc2[nH]c(Cc3nn(CC(=O)N4CCC(N5CCOCC5)CC4)c(=O)c4ccccc34)nc2cc1OCC(F)F [Compound 238, 6-(2,2-difluoroethoxy)-2-[[3-[2-(4-morpholino-1-piperidyl)-2-oxo-ethyl]-4-oxo-phthalazin-1-yl]methyl]-3H-benzimidazole-5-carbonitrile] | 5240 | –
20 | CS(=O)(=O)NC(=O)Cn1nc(Cc2nc3cc(OCC(F)F)c(F)cc3[nH]2)c2ccccc2c1=O [Compound 248, 2-[4-[[5-(2,2-difluoroethoxy)-6-fluoro-1H-benzimidazol-2-yl]methyl]-1-oxo-phthalazin-2-yl]-N-methylsulfonyl-acetamide] | – | 89.6
21 | CS(=O)(=O)NC(=O)Cn1nc(Cc2nc3cc(OCC4(C#N)CC4)c(Cl)cc3[nH]2)c2ccccc2c1=O [Compound 249, 2-[4-[[6-chloro-5-[(1-cyanocyclopropyl)methoxy]-1H-benzimidazol-2-yl]methyl]-1-oxo-phthalazin-2-yl]-N-methylsulfonyl-acetamide] | – | 10.2
22 | CC1(COc2cc3nc(Cc4nn(CC(=O)NS(C)(=O)=O)c(=O)c5ccccc45)[nH]c3cc2Cl)CC1 [Compound 250, 2-[4-[[6-chloro-5-[(1-methylcyclopropyl)methoxy]-1H-benzimidazol-2-yl]methyl]-1-oxo-phthalazin-2-yl]-N-methylsulfonyl-acetamide] | – | 9.39
23 | CCOc1ccc2nn(Cc3nn(CC(=O)O)c(=O)c4ccccc34)cc2c1Cl [Compound 254, 2-[4-[(4-chloro-5-ethoxy-indazol-2-yl)methyl]-1-oxo-phthalazin-2-yl]acetic acid] | – | ≥ 19900
24 | CCOc1ccc2cn(Cc3nn(CC(=O)O)c(=O)c4ccccc34)nc2c1Cl [compound 22, 2-[4-[(7-chloro-6-ethoxy-indazol-2-yl)methyl]-1-oxo-phthalazin-2-yl]acetic acid] | – | ≥ 19900

— patent US20210315893A1 (Galapagos NV, priority 2017, published 2021)
